# Measured values: patent publication US20110190336A1, “AZABENZIMIDAZOLONES” (CARA THERAPEUTICS, INC., priority 2008, published 2011)
# Molecular target: T1, human DP2 receptor (Homo sapiens, UniProt Q9Y5Y4)
# T1 construct: expressed in transfected cells; host or cells: CHO-K1 FLP-In (Invitrogen, catalog no. R758-07), stably transfected
# T1 sequence (Q9Y5Y4 1-395): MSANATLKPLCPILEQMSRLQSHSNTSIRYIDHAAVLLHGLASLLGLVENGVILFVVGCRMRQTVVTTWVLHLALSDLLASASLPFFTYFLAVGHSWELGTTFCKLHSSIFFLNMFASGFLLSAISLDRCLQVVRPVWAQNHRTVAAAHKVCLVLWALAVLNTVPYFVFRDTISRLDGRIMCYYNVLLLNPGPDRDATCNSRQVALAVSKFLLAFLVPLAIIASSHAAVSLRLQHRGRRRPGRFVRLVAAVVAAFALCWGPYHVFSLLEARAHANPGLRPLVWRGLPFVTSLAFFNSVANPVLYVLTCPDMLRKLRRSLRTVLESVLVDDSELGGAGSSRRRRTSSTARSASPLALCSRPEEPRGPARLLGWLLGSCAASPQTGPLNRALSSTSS
# Experiment: Prostaglandin D2 binding inhibition assay (scintillation proximity assay, 3H PGD2, membranes of transfected CHO cells)
# Settings: SPA, 5.5 nM 3H PGD2, CHO-K1 FLP-In human DP2 membranes; upper limit determinable 30 μM; read-out: IC50 ranges for inhibition of PGD2 binding to human DP2
# Method in brief: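 Membranes (5 μg) from CHO-K1 cells stably expressing human DP2 were mixed with WGA SPA beads and 5.5 nM 3H PGD2 in Tris buffer with 10 mM MgCl2, 100 mM NaCl, 0.1% BSA, plus compound. After 60 min at room temperature, CPM were read; IC50 from two-parameter nonlinear regression.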
row,SMILES,IC50
1,"CCCCOc1ccc(S(=O)(=O)N2CCC(n3c(=O)n(CC(=O)O)c4cccnc43)CC2)cc1 [Compound 98, 2-(3-(1-(4-butoxyphenylsulfonyl)piperidin-4-yl)-2-oxo-2,3-dihydro-1H-imidazo[4,5-b]pyridin-1-yl)acetic acid]",< 1000 nM
2,"CS(=O)(=O)c1ccccc1S(=O)(=O)NC1CCC(n2c(=O)n(CC(=O)O)c3cccnc32)CC1 (centres unmarked) [Compound 104, 2-(3-(4-(2-(methylsulfonyl)phenylsulfonamido)cyclohexyl)-2-oxo-2,3-dihydro-1H-imidazo[4,5-b]pyridin-1-yl)acetic acid]",1000 to 10000 nM
3,"O=C(O)Cn1c(=O)n(C2CCC(NS(=O)(=O)c3ccc(F)cc3Cl)CC2)c2ncccc21 (centres unmarked) [Compound 105, 2-(3-(4-(2-chloro-4-fluorophenylsulfonamido)cyclohexyl)-2-oxo-2,3-dihydro-1H-imidazo[4,5-b]pyridin-1-yl)acetic acid]",1000 to 10000 nM
4,"O=C(O)Cn1c(=O)n(C2CCC(NS(=O)(=O)c3ccc(Cl)cc3Cl)CC2)c2ncccc21 (centres unmarked) [Compound 106, 2-(3-(4-(2,4-dichlorophenylsulfonamido)cyclohexyl)-2-oxo-2,3-dihydro-1H-imidazo[4,5-b]pyridin-1-yl)acetic acid]",1000 to 10000 nM
5,"Cc1ccc(S(=O)(=O)NC2CCC(n3c(=O)n(CC(=O)O)c4cccnc43)CC2)c(F)c1 (centres unmarked) [Compound 107, 2-(3-(4-(2-fluoro-4-methylphenylsulfonamido)cyclohexyl)-2-oxo-2,3-dihydro-1H-imidazo[4,5-b]pyridin-1-yl)acetic acid]",1000 to 10000 nM
6,"CS(=O)(=O)c1ccccc1S(=O)(=O)N1CCC[C@H](n2c(=O)n(CC(=O)O)c3cccnc32)C1 [Compound 108, (S)-2-(3-(1-(2-(methylsulfonyl)phenylsulfonyl)piperidin-3-yl)-2-oxo-2,3-dihydro-1H-imidazo[4,5-b]pyridin-1-yl)acetic acid]",1000 to 10000 nM
7,"O=C(O)Cn1c(=O)n([C@H]2CCCN(S(=O)(=O)c3ccc(Cl)cc3Cl)C2)c2ncccc21 [Compound 109, (S)-2-(3-(1-(2,4-dichlorophenylsulfonyl)piperidin-3-yl)-2-oxo-2,3-dihydro-1H-imidazo[4,5-b]pyridin-1-yl)acetic acid]",1000 to 10000 nM
8,"Cc1ccc(S(=O)(=O)N2CCC[C@H](n3c(=O)n(CC(=O)O)c4cccnc43)C2)c(F)c1 [Compound 110, (S)-2-(3-(1-(2-fluoro-4-methylphenylsulfonyl)piperidin-3-yl)-2-oxo-2,3-dihydro-1H-imidazo[4,5-b]pyridin-1-yl)acetic acid]",1000 to 10000 nM
9,"O=C(O)Cn1c(=O)n(C2CCN(S(=O)(=O)c3ccc(Cl)cc3Cl)C2)c2ncccc21 (centres unmarked) [Compound 112, 2-(3-(1-(2,4-dichlorophenylsulfonyl)pyrrolidin-3-yl)-2-oxo-2,3-dihydro-1H-imidazo[4,5-b]pyridin-1-yl)acetic acid]",1000 to 10000 nM
10,"Cc1ccnc2c1n(CC(=O)O)c(=O)n2C1CCN(S(=O)(=O)c2ccccc2S(C)(=O)=O)CC1 [Compound 117, 2-(7-methyl-3-(1-(2-(methylsulfonyl)phenylsulfonyl)piperidin-4-yl)-2-oxo-2,3-dihydro-1H-imidazo[4,5-b]pyridin-1-yl)acetic acid]",> 30000 nM
11,"Cc1ccc(S(=O)(=O)N2CCC(n3c(=O)n(CC(=O)O)c4c(C)ccnc43)CC2)c(F)c1 [Compound 118, 2-(3-(1-(2-fluoro-4-methylphenylsulfonyl)piperidin-4-yl)-7-methyl-2-oxo-2,3-dihydro-1H-imidazo[4,5-b]pyridin-1-yl)acetic acid]",> 30000 nM
12,"Cc1cc(F)ccc1S(=O)(=O)N1CCC(n2c(=O)n(CC(=O)O)c3c(C)ccnc32)CC1 [Compound 119, 2-(3-(1-(4-fluoro-2-methylphenylsulfonyl)piperidin-4-yl)-7-methyl-2-oxo-2,3-dihydro-1H-imidazo[4,5-b]pyridin-1-yl)acetic acid]",> 30000 nM

# Next, values leading:
row,IC50,SMILES
1,< 1000 nM,"O=C(O)Cn1c(=O)n(C2CCN(S(=O)(=O)c3cc(F)c(Cl)cc3F)CC2)c2ncccc21 [Compound 91, 2-(3-(1-(4-chloro-2,5-difluoro-phenylsulfonyl)piperidin-4-yl)-2-oxo-2,3-dihydro-1H-imidazo[4,5-b]pyridin-1-yl)acetic acid]"
2,1000 to 10000 nM,"O=C(O)Cn1c(=O)n(C2CCN(S(=O)(=O)c3cc(F)c(F)cc3F)CC2)c2ncccc21 [Compound 92, 2-(2-oxo-3-(1-(2,4,5-trifluoro-phenylsulfonyl)piperidin-4-yl)-2,3-dihydro-1H-imidazo[4,5-b]pyridin-1-yl)acetic acid]"
3,< 1000 nM,"O=C(O)Cn1c(=O)n(C2CCN(S(=O)(=O)c3ccc(F)cc3F)CC2)c2ncccc21 [Compound 93, 2-(3-(1-(2,4-difluorophenyl-sulfonyl)piperidin-4-yl)-2-oxo-2,3-dihydro-1H-imidazo[4,5-b]pyridin-1-yl)acetic acid]"
4,< 1000 nM,"Cc1ccccc1S(=O)(=O)N1CCC(n2c(=O)n(CC(=O)O)c3cccnc32)CC1 [Compound 94, 2-(2-oxo-3-(1-(o-tolylsulfonyl)piperidin-4-yl)-2,3-dihydro-1H-imidazo[4,5-b]pyridin-1-yl)acetic acid]"
5,1000 to 10000 nM,"Cc1cc(S(=O)(=O)N2CCC(n3c(=O)n(CC(=O)O)c4cccnc43)CC2)ccc1F [Compound 95, 2-(3-(1-(4-fluoro-3-methylphenylsulfonyl)piperidin-4-yl)-2-oxo-2,3-dihydro-1H-imidazo[4,5-b]pyridin-1-yl)acetic acid]"
6,< 1000 nM,"Cc1c(F)cccc1S(=O)(=O)N1CCC(n2c(=O)n(CC(=O)O)c3cccnc32)CC1 [Compound 96, 2-(3-(1-(3-fluoro-2-methylphenylsulfonyl)piperidin-4-yl)-2-oxo-2,3-dihydro-1H-imidazo[4,5-b]pyridin-1-yl)acetic acid]"
7,1000 to 10000 nM,"COc1ccccc1S(=O)(=O)N1CCC(n2c(=O)n(CC(=O)O)c3cccnc32)CC1 [Compound 97, 2-(3-(1-(2-methoxyphenylsulfonyl)piperidin-4-yl)-2-oxo-2,3-dihydro-1H-imidazo[4,5-b]pyridin-1-yl)acetic acid]"
8,1000 to 10000 nM,"CCOc1ccc(S(=O)(=O)N2CCC(n3c(=O)n(CC(=O)O)c4cccnc43)CC2)cc1 [Compound 99, 2-(3-(1-(4-ethoxyphenylsulfonyl)piperidin-4-yl)-2-oxo-2,3-dihydro-1H-imidazo[4,5-b]pyridin-1-yl)acetic acid]"
9,< 1000 nM,"CS(=O)(=O)c1ccccc1S(=O)(=O)N1CC[C@@H](n2c(=O)n(CC(=O)O)c3cccnc32)C1 [Compound 100, (R)-2-(3-(1-(2-(methylsulfonyl)phenylsulfonyl)pyrrolidin-3-yl)-2-oxo-2,3-dihydro-1H-imidazo[4,5-b]pyridin-1-yl)acetic acid]"
10,< 1000 nM,"O=C(O)Cn1c(=O)n([C@@H]2CCN(S(=O)(=O)c3ccc(F)cc3Cl)C2)c2ncccc21 [Compound 101, (R)-2-(3-(1-(2-chloro-4-fluorophenylsulfonyl)pyrrolidin-3-yl)-2-oxo-2,3-dihydro-1H-imidazo[4,5-b]pyridin-1-yl)acetic acid]"
11,< 1000 nM,"O=C(O)Cn1c(=O)n([C@@H]2CCN(S(=O)(=O)c3ccc(Cl)cc3Cl)C2)c2ncccc21 [Compound 102, (R)-2-(3-(1-(2,4-dichlorophenylsulfonyl)pyrrolidin-3-yl)-2-oxo-2,3-dihydro-1H-imidazo[4,5-b]pyridin-1-yl)acetic acid]"
12,< 1000 nM,"Cc1ccc(S(=O)(=O)N2CC[C@@H](n3c(=O)n(CC(=O)O)c4cccnc43)C2)c(F)c1 [Compound 103, (R)-2-(3-(1-(2-fluoro-4-methylphenylsulfonyl)pyrrolidin-3-yl)-2-oxo-2,3-dihydro-1H-imidazo[4,5-b]pyridin-1-yl)acetic acid]"
13,< 1000 nM,"CS(=O)(=O)c1ccccc1S(=O)(=O)N1CCC(n2c(=O)n(CC(=O)O)c3cccnc32)C1 (centres unmarked) [Compound 111, 2-(3-(1-(2-(methylsulfonyl)phenylsulfonyl)pyrrolidin-3-yl)-2-oxo-2,3-dihydro-1H-imidazo[4,5-b]pyridin-1-yl)acetic acid]"
14,< 1000 nM,"CS(=O)(=O)c1ccccc1S(=O)(=O)N1CCC[C@@H](n2c(=O)n(CC(=O)O)c3cccnc32)C1 [Compound 113, (R)-2-(3-(1-(2-(methylsulfonyl)phenylsulfonyl)piperidin-3-yl)-2-oxo-2,3-dihydro-1H-imidazo[4,5-b]pyridin-1-yl)acetic acid]"
15,< 1000 nM,"O=C(O)Cn1c(=O)n([C@@H]2CCCN(S(=O)(=O)c3ccc(F)cc3Cl)C2)c2ncccc21 [Compound 114, (R)-2-(3-(1-(2-chloro-4-fluorophenylsulfonyl)piperidin-3-yl)-2-oxo-2,3-dihydro-1H-imidazo[4,5-b]pyridin-1-yl)acetic acid]"
16,< 1000 nM,"O=C(O)Cn1c(=O)n([C@@H]2CCCN(S(=O)(=O)c3ccc(Cl)cc3Cl)C2)c2ncccc21 [Compound 115, (R)-2-(3-(1-(2,4-dichlorophenylsulfonyl)piperidin-3-yl)-2-oxo-2,3-dihydro-1H-imidazo[4,5-b]pyridin-1-yl)acetic acid]"
17,< 1000 nM,"Cc1ccc(S(=O)(=O)N2CCC[C@@H](n3c(=O)n(CC(=O)O)c4cccnc43)C2)c(F)c1 [Compound 116, (R)-2-(3-(1-(2-fluoro-4-methylphenylsulfonyl)piperidin-3-yl)-2-oxo-2,3-dihydro-1H-imidazo[4,5-b]pyridin-1-yl)acetic acid]"
